# Tested on: Hedgehog pathway activation (GLi-luciferase reporter) in Shh Light II reporter cells
# Experiment: Hedgehog pathway activation on Shh Light II reporter cells measured by luciferase activity
# Assay type: cell-based
# Settings: Mus musculus, Shh Light II, hShh activation, read-out: Shh (IC50, inhibition of Hedgehog pathway activation)
# Procedure: Hedgehog conditioned media was obtained by transfecting 293H cells with the full length gene encoding human Sonic Hedgehog (hShh) inserted into the pCMV6 expression vector, which contains a neomycin selectable marker and expresses the protein of interest with a C-terminal FLAG affinity tag. After selection in G418 containing media, conditioned media from Hedgehog expressing clones were tested for the ability to activate the hedgehog-responsive GLi-luciferase reporter in the Shh Light II cell line obtained by license from John Hopkins University (Taipale J, et al. Effects of oncogenic mutations in Smoothened and Patched can be reversed by cyclopamine. Nature 406: 1005-1009, 2000).
# A test compound library was screened against hShh and 500 nM SAG (a direct agonist of the Smoothened receptor) activated 10T1/2/Smo#3 cells and Shh Light II reporter cells for the ability to block Hedgehog pathway activation. Concurrently, cell viability was measured by utilizing Celltiter-Blue® (Promega, Madison Wis.) viability assay. Active compounds were defined as those that inhibited Hedgehog signaling by greater than 50% with no concurrent loss in cell viability.
# Their inhibitory activity against Hedgehog pathway activation on 10T1/2/Smo#3 cells as measured by ALP activity and Shh Light II reporter cells as measured by luciferase activity is shown in Table 1 below. In Table 1, +++ stands for an IC50 value that is less than 0.3 μM, ++ between 0.3 and 3 μM, + between 3 and 30 μM.
# Additional data for compounds of the invention is shown below in Table 2. Their inhibitory activities against Hedgehog pathway activation are shown as IC50 values in μM on 10T1/2/Smo#3 cells as measured by ALP activity, or on Shh Light II reporter cells as measured by luciferase activity (hShh activation).
row,Compound,IC50
1,"Cc1ccc(-c2nc3ccc(-c4ccc(C(F)(F)F)nc4)nn3c2C)cc1NC(=O)C(C)(C)C [Example 339, N-(2-methyl-5-(3-methyl-6-(6-(trifluoromethyl)pyridin-3-yl)imidazo[1,2-b]pyridazin-2-yl)phenyl)pivalamide]",277 nM
2,"CC(C)(C)C(=O)Nc1cc(-c2cn3nc(-c4cncc(N)c4)ccc3n2)ccc1C(F)(F)F [Example 343, N-(5-(6-(5-aminopyridin-3-yl)imidazo[1,2-b]pyridazin-2-yl)-2-(trifluoromethyl)phenyl)pivalamide]",340 nM
3,"CC(C)(C)C(=O)Nc1cc(-c2cn3nc(-c4cccnc4N)ccc3n2)ccc1C(F)(F)F [Example 344, N-(5-(6-(2-aminopyridin-3-yl)imidazo[1,2-b]pyridazin-2-yl)-2-(trifluoromethyl)phenyl)pivalamide]",8740 nM
4,"CC(C)(C)C(=O)Nc1cc(-c2cn3nc(N4CCCC4CO)ccc3n2)ccc1C(F)(F)F (stereo not shown) [Example 348, N-(5-(6-(2-(hydroxymethyl)pyrrolidin-1-yl)imidazo[1,2-b]pyridazin-2-yl)-2-(trifluoromethyl)phenyl)pivalamide]",339 nM
5,"COc1cncc(-c2ccc3nc(-c4ccc(C)c(NC(=O)C(C)(C)C)c4)cn3n2)c1 [Example 403, N-(5-(6-(5-methoxypyridin-3-yl)imidazo[1,2-b]pyridazin-2-yl)-2-methylphenyl)pivalamide]",474 nM
6,"Cc1ccc(-c2cn3nc(-c4ccc(O)nc4)ccc3n2)cc1NC(=O)C(C)(C)C [Example 404, N-(5-(6-(6-hydroxypyridin-3-yl)imidazo[1,2-b]pyridazin-2-yl)-2-methylphenyl)pivalamide]",873 nM
7,"Cc1ccc(-c2cn3nc(-c4cncc(F)c4)ccc3n2)cc1NC(=O)C(C)(C)C [Example 407, N-(5-(6-(5-fluoropyridin-3-yl)imidazo[1,2-b]pyridazin-2-yl)-2-methylphenyl)pivalamide]",353 nM
8,"Cc1ccc(-c2cn3nc(-c4ccc(Cl)nc4)ccc3n2)cc1NC(=O)C(C)(C)C [Example 408, N-(5-(6-(6-chloropyridin-3-yl)imidazo[1,2-b]pyridazin-2-yl)-2-methylphenyl)pivalamide]",340 nM
9,"Cc1ccc(-c2cn3nc(-c4ccc(O)cc4C(F)(F)F)ccc3n2)cc1NC(=O)C(C)(C)C [Example 409, N-(5-(6-(4-hydroxy-2-(trifluoromethyl)phenyl)imidazo[1,2-b]pyridazin-2-yl)-2-methylphenyl)pivalamide]",236 nM
10,"CCOC(=O)CCCCCNC1CCN(c2ccc3nc(-c4ccc(C)c(NC(=O)C(C)(C)C)c4)cn3n2)C1 (stereo not shown) [Example 414, ethyl 6-(1-(2-(4-methyl-3-pivalamidophenyl)imidazo[1,2-b]pyridazin-6-yl)pyrrolidin-3-ylamino)hexanoate]",947 nM
11,"CCOC(=O)CCCCCCNC1CCN(c2ccc3nc(-c4ccc(C)c(NC(=O)C(C)(C)C)c4)cn3n2)C1 (stereo not shown) [Example 415, ethyl 7-(1-(2-(4-methyl-3-pivalamidophenyl)imidazo[1,2-b]pyridazin-6-yl)pyrrolidin-3-ylamino)heptanoate]",1760 nM
12,"Cc1ccc(-c2cn3nc(-c4ccc(OCCCCCC(=O)NO)cc4C(F)(F)F)ccc3n2)cc1NC(=O)C(C)(C)C [Example 416, N-hydroxy-6-(4-(2-(4-methyl-3-pivalamidophenyl)imidazo[1,2-b]pyridazin-6-yl)-3-(trifluoromethyl)phenoxy)hexanamide]",253 nM
13,"Cc1ccc(-c2cn3nc(N4CCC(NCCCCCC(=O)NO)C4)ccc3n2)cc1NC(=O)C(C)(C)C (stereo not shown) [Example 418, N-hydroxy-6-(1-(2-(4-methyl-3-pivalamidophenyl)imidazo[1,2-b]pyridazin-6-yl)pyrrolidin-3-ylamino)hexanamide]",1390 nM
14,"Cc1ccc(-c2cn3nc(N4CCC(NCCCCCCC(=O)NO)C4)ccc3n2)cc1NC(=O)C(C)(C)C (stereo not shown) [Example 419, N-hydroxy-7-(1-(2-(4-methyl-3-pivalamidophenyl)imidazo[1,2-b]pyridazin-6-yl)pyrrolidin-3-ylamino)heptanamide]",968 nM
15,"COC(=O)CCCCCCC(=O)Nc1cc(-c2cn3nc(-c4cccnc4C(F)(F)F)ccc3n2)ccc1C [Example 420, methyl 8-(2-methyl-5-(6-(2-(trifluoromethyl)pyridin-3-yl)imidazo[1,2-b]pyridazin-2-yl)phenylamino)-8-oxooctanoate]",1370 nM
16,"CCOC(=O)CCCOc1cc(-c2ccc3nc(-c4ccc(C)c(NC(=O)C(C)(C)C)c4)cn3n2)cc(C(F)(F)F)n1 [Example 431, ethyl 4-(4-(2-(4-methyl-3-pivalamidophenyl)imidazo[1,2-b]pyridazin-6-yl)-6-(trifluoromethyl)pyridin-2-yloxy)butanoate]",422 nM
17,"CCOC(=O)CCCOc1ccc(C(F)(F)F)c(-c2ccc3nc(-c4ccc(C)c(NC(=O)C(C)(C)C)c4)cn3n2)c1 [Example 434, ethyl 4-(3-(2-(4-methyl-3-pivalamidophenyl)imidazo[1,2-b]pyridazin-6-yl)-4-(trifluoromethyl)phenoxy)butanoate]",353 nM
18,"CCOC(=O)CC(=O)Nc1cc(-c2cn3nc(-c4cccnc4C(F)(F)F)ccc3n2)ccc1C [Example 435, ethyl 3-(2-methyl-5-(6-(2-(trifluoromethyl)pyridin-3-yl)imidazo[1,2-b]pyridazin-2-yl)phenylamino)-3-oxopropanoate]",1270 nM
19,"Cc1ccc(-c2cn3nc(-c4cccnc4C(F)(F)F)ccc3n2)cc1NC(=O)CCCCC(=O)NO [Example 440, N^1-hydroxy-N^6-(2-methyl-5-(6-(2-(trifluoromethyl)pyridin-3-yl)imidazo[1,2-b]pyridazin-2-yl)phenyl)adipamide]",4060 nM
20,"Cc1ccc(-c2cn3nc(-c4cccnc4C(F)(F)F)ccc3n2)cc1-c1cccc(C(F)(F)F)n1 [Example 441, 2-(4-methyl-3-(6-(trifluoromethyl)pyridin-2-yl)phenyl)-6-(2-(trifluoromethyl)pyridin-3-yl)imidazo[1,2-b]pyridazine]",2560 nM

# Second part, the molecule after the results:
row,IC50,Compound
1,409 nM,"Cc1ccnc(F)c1-c1ccc2nc(-c3ccc(C(F)(F)F)c(NC(=O)C(C)(C)C)c3)cn2n1 [Example 342, N-(5-(6-(2-fluoro-4-methylpyridin-3-yl)imidazo[1,2-b]pyridazin-2-yl)-2-(trifluoromethyl)phenyl)pivalamide]"
2,5490 nM,"CC(C)(C)C(=O)Nc1cc(-c2cn3nc(-c4ccccc4N)ccc3n2)ccc1C(F)(F)F [Example 345, N-(5-(6-(2-aminophenyl)imidazo[1,2-b]pyridazin-2-yl)-2-(trifluoromethyl)phenyl)pivalamide]"
3,681 nM,"Cc1ccc(-c2cn3nc(-c4cccc(O)c4C(F)(F)F)ccc3n2)cc1NC(=O)C(C)(C)C [Example 398, N-(5-(6-(3-hydroxy-2-(trifluoromethyl)phenyl)imidazo[1,2-b]pyridazin-2-yl)-2-methylphenyl)pivalamide]"
4,1560 nM,"Cc1ccc(-c2cn3nc(-c4ccc(N)nc4)ccc3n2)cc1NC(=O)C(C)(C)C [Example 402, N-(5-(6-(6-aminopyridin-3-yl)imidazo[1,2-b]pyridazin-2-yl)-2-methylphenyl)pivalamide]"
5,1980 nM,"Cc1ccc(-c2cn3nc(-c4cncc(O)c4)ccc3n2)cc1NC(=O)C(C)(C)C [Example 405, N-(5-(6-(5-hydroxypyridin-3-yl)imidazo[1,2-b]pyridazin-2-yl)-2-methylphenyl)pivalamide]"
6,2060 nM,"Cc1ccc(-c2cn3nc(-c4cccnc4O)ccc3n2)cc1NC(=O)C(C)(C)C [Example 406, N-(5-(6-(2-hydroxypyridin-3-yl)imidazo[1,2-b]pyridazin-2-yl)-2-methylphenyl)pivalamide]"
7,3310 nM,"COC(=O)CCCCC(=O)Nc1cc(-c2cn3nc(-c4cccnc4C(F)(F)F)ccc3n2)ccc1C [Example 421, methyl 6-(2-methyl-5-(6-(2-(trifluoromethyl)pyridin-3-yl)imidazo[1,2-b]pyridazin-2-yl)phenylamino)-6-oxohexanoate]"
8,975 nM,"CCOC(=O)CCC(=O)Nc1cc(-c2cn3nc(-c4cccnc4C(F)(F)F)ccc3n2)ccc1C [Example 436, ethyl 4-(2-methyl-5-(6-(2-(trifluoromethyl)pyridin-3-yl)imidazo[1,2-b]pyridazin-2-yl)phenylamino)-4-oxobutanoate]"
9,1060 nM,"Cc1ccc(-c2cn3nc(C4=CCCC4)ccc3n2)cc1NC(=O)C(C)(C)C [Example 442, N-(5-(6-cyclopentenylimidazo[1,2-b]pyridazin-2-yl)-2-methylphenyl)pivalamide]"
10,1880 nM,"Cc1ccc(-c2cn3nc(C4=CCCCC4)ccc3n2)cc1NC(=O)C(C)(C)C [Example 443, N-(5-(6-cyclohexenylimidazo[1,2-b]pyridazin-2-yl)-2-methylphenyl)pivalamide]"

# Same assay, conditions: hShh activation, read-out: Shh (IC50, inhibition of Hedgehog pathway activation)
row,IC50,Compound
1,5430 nM,"Cc1ccc(-c2cn3nc(-c4cccnc4C(F)(F)F)ccc3n2)cc1NC(=O)CCCCCCC(=O)O [Example 430, 8-(2-methyl-5-(6-(2-(trifluoromethyl)pyridin-3-yl)imidazo[1,2-b]pyridazin-2-yl)phenylamino)-8-oxooctanoic acid]"

# Reference: patent US8871767B2, “2-arylimidazo[1,2-B]pyridazine, 2-phenylimidazo[1,2-A]pyridine, and 2-phenylimidazo[1,2-A]pyrazine derivatives” (Hengrui (USA) Ltd., priority 2010, dated 2014)
